In publication PMC4648050, “Discovery of Inhibitors of Trypanosoma brucei by Phenotypic Screening of a Focused Protein Kinase Library” (Chemmedchem, 2015):
Like-named read-outs stand apart in the source and are kept apart here.

Experiments:
MKK1 = MKK1 (Homo sapiens, UniProt Q02750); assay: Kinase panel: MKK1; type: biochemical, human/mammalian; settings: compound at 10 μM, read-out: % of activity respect of the control
Method: (§1) The DDU kinase-focused compound set contains lead-like scaffolds that are designed to target protein kinases; they have kinase hinge binding motifs. Four of the 1H-imidazopyrazinones were screened against a human/mammalian kinase panel at the University of Dundee (http://www.kinase-screen.mrc.ac.uk) at a concentration of 10 μM. At the time of testing the panel contained 79 mammalian kinases selected to provide a broad coverage of the mammalian kinome (∼500 kinases in the human genome).[3] None of the compounds were active against any of the kinases at 10 μM.

IRR = IRR (Homo sapiens, UniProt P14616); assay: Kinase panel: IRR; type: biochemical, human/mammalian; settings: compound at 10 μM, read-out: % of activity respect of the control
IRR, sequence (P14616 27-1297): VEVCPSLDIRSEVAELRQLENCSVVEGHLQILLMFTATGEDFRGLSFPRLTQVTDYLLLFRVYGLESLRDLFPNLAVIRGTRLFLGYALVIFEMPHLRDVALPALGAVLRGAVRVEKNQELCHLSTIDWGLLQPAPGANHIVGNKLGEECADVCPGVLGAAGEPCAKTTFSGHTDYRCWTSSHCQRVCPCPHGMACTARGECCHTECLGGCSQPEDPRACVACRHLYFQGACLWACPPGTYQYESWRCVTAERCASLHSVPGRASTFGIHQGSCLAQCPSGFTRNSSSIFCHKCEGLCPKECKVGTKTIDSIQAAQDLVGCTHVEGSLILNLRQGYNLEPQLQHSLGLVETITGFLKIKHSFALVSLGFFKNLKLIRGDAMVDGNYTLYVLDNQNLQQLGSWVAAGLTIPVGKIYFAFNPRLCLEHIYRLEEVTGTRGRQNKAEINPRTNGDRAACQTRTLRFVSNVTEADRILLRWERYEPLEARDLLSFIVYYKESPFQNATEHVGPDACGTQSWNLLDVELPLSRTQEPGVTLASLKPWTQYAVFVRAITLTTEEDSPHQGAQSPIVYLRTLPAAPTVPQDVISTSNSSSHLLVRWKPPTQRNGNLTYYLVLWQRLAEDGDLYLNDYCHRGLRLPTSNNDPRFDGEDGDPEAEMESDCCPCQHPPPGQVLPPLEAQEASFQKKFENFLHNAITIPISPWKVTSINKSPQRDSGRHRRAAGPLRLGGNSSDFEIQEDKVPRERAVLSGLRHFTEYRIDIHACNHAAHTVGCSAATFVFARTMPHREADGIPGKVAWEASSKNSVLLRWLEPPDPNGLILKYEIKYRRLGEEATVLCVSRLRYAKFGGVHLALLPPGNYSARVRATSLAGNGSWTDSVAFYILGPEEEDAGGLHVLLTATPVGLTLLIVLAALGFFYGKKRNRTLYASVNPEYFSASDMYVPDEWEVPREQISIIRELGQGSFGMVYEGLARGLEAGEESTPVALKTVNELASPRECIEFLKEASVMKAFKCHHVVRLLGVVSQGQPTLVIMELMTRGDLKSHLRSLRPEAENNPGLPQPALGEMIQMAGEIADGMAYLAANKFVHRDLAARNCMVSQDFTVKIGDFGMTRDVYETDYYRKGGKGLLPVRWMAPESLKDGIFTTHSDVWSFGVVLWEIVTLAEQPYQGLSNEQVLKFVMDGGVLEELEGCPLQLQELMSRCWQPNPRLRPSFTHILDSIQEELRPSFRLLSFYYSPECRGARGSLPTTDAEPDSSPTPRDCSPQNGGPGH
Method: as §1

Aurora B = Aurora B (Homo sapiens, UniProt Q96GD4); assay: Kinase panel: Aurora B; type: biochemical, human/mammalian; settings: compound at 10 μM, read-out: % of activity respect of the control
Aurora B, sequence (Q96GD4 whole entry): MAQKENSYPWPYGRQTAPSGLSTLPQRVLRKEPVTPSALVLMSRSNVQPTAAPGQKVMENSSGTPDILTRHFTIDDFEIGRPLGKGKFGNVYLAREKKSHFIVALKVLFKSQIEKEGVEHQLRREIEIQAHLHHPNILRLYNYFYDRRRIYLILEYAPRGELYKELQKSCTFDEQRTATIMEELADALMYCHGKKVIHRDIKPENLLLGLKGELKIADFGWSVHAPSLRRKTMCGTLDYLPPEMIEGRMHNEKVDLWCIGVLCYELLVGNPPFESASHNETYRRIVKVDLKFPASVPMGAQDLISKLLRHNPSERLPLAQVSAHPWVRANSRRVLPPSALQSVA
Method: as §1

SGK1 = molecular target: T1, SGK1 (Homo sapiens, UniProt O00141); assay: Kinase panel: SGK1; type: biochemical, human/mammalian; settings: compound at 10 μM, read-out: % of activity respect of the control
T1 sequence (O00141 1-431): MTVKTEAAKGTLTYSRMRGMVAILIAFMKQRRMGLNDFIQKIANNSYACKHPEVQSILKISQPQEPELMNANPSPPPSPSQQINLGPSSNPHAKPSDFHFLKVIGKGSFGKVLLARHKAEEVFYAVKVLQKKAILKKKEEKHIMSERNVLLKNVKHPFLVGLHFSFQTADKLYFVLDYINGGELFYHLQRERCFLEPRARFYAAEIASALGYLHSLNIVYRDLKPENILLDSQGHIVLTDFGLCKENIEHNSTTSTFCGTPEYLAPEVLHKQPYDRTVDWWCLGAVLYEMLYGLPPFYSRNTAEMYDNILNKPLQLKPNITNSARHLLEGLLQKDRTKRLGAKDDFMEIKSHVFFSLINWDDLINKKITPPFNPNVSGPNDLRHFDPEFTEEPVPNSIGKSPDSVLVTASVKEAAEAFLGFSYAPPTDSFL
Method: as §1

T. b. brucei = assay: Trypanosome proliferation assay; type: cell-based, Trypanosoma brucei brucei; settings: geometric mean of two or more determinations, standard cell viability (resazurin) assay, read-out: EC50 T. b. brucei
In short: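 Bloodstream-stage T. brucei or MRC5 cells (MRC5 in MEM + 10% FBS), 2×10^3 per well, exposed to compounds ([…] to 0.5 nM) for 69 h at 37 °C, 5% CO2. Viability read by fluorescence after a further 4 h with 50 μM resazurin.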

CDK2-Cyclin A = CDK2-Cyclin A (Homo sapiens, UniProt P24941); assay: Kinase panel: CDK2-Cyclin A; type: biochemical, human/mammalian; settings: compound at 10 μM, read-out: % of activity respect of the control
Method: as §1

JNK2 = JNK2 (Homo sapiens, UniProt P45984); assay: Kinase panel: JNK2; type: biochemical, human/mammalian; settings: compound at 10 μM, read-out: % of activity respect of the control
JNK2, sequence (P45984 whole entry): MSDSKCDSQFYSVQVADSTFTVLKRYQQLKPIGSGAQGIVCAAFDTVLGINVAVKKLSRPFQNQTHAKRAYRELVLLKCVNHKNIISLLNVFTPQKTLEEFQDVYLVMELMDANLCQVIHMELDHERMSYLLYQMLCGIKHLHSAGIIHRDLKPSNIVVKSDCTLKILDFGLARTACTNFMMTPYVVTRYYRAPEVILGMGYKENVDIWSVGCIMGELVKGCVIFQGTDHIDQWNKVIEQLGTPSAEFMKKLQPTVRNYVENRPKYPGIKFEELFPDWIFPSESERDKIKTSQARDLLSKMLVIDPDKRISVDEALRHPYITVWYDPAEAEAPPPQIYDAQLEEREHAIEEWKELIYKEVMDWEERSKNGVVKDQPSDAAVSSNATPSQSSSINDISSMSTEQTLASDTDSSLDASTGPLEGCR
Method: as §1

BTK = BTK (Homo sapiens, UniProt Q06187); assay: Kinase panel: BTK; type: biochemical, human/mammalian; settings: compound at 10 μM, read-out: % of activity respect of the control
BTK, sequence (Q06187 whole entry): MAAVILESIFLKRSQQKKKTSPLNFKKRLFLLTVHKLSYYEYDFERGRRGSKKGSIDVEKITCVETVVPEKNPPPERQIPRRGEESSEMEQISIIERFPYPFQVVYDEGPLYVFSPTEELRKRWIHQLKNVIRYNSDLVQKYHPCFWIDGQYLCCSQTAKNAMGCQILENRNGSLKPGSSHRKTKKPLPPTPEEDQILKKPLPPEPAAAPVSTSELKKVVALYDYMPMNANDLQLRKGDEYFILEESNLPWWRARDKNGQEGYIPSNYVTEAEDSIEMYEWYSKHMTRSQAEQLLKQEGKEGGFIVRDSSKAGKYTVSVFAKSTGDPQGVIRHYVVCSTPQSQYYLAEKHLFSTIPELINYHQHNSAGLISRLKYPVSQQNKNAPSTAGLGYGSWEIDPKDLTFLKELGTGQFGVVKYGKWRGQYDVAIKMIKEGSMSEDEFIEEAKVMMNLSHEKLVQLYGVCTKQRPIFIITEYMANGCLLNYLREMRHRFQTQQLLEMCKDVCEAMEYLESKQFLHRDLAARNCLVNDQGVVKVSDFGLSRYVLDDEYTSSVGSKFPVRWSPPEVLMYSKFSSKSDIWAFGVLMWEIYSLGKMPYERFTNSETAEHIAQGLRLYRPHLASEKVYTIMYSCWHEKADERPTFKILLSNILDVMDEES
Method: as §1

AMPK = assay: Kinase panel: AMPK; type: biochemical, human/mammalian; settings: compound at 10 μM
Method: as §1

GSK3b = GSK3b (Homo sapiens, UniProt P49841); assay: Kinase panel: GSK3b; type: biochemical, human/mammalian; settings: compound at 10 μM, read-out: % of activity respect of the control
GSK3b, sequence (P49841 whole entry): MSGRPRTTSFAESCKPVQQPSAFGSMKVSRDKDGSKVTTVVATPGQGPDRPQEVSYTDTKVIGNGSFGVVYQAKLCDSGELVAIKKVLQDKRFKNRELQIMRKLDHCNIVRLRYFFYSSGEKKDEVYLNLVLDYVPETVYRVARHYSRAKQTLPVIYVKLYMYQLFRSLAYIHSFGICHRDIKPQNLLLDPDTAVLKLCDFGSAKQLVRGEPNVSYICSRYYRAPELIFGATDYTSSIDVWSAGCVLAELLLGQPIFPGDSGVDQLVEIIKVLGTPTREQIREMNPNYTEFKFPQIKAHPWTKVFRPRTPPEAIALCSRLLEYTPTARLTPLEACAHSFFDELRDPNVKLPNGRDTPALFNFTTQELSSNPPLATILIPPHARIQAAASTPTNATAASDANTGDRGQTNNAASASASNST
Method: as §1

PRAK = molecular target: T2, PRAK (Homo sapiens, UniProt Q8IW41); assay: Kinase panel: PRAK; type: biochemical, human/mammalian; settings: compound at 10 μM, read-out: % of activity respect of the control
T2 sequence (Q8IW41 1-473): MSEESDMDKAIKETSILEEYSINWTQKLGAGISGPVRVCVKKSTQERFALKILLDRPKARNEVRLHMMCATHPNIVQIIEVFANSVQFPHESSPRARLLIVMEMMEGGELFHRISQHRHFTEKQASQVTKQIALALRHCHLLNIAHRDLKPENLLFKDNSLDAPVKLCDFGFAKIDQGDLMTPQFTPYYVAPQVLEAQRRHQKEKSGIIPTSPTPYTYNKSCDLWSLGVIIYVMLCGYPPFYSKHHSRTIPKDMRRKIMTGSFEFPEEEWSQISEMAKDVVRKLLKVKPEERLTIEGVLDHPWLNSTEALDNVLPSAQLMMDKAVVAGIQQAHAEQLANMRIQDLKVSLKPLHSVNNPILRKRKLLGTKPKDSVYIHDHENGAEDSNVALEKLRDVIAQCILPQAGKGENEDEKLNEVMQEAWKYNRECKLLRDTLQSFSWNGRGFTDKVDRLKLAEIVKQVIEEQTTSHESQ
Method: as §1

ERK1 = ERK1 (Homo sapiens, UniProt P27361); assay: Kinase panel: ERK1; type: biochemical, human/mammalian; settings: compound at 10 μM, read-out: % of activity respect of the control
ERK1, sequence (P27361 whole entry): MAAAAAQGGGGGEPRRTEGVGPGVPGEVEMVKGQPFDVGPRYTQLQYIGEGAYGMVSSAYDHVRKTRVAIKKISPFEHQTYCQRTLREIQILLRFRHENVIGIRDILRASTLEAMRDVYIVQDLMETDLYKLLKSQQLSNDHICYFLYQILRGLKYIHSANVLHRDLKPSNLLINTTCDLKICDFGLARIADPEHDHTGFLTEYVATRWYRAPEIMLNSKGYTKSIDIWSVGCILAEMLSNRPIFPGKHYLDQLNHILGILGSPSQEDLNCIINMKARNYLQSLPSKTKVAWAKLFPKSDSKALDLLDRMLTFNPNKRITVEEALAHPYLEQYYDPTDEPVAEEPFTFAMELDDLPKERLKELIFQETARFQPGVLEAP
Method: as §1

CK1 = CK1 (Homo sapiens, UniProt P48730); assay: Kinase panel: CK1; type: biochemical, human/mammalian; settings: compound at 10 μM, read-out: % of activity respect of the control
CK1, sequence (P48730 whole entry): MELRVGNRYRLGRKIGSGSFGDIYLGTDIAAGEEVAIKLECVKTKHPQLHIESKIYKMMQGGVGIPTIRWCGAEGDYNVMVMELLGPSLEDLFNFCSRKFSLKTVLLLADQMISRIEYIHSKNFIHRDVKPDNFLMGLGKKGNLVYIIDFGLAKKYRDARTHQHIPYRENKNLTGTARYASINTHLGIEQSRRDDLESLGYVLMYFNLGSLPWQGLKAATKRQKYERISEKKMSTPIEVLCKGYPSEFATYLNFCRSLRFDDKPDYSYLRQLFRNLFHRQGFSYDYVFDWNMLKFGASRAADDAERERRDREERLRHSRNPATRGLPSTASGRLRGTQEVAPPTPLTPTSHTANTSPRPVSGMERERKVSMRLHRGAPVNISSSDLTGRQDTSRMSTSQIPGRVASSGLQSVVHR
Method: as §1

PKA = PKA (Homo sapiens, UniProt P17612); assay: Kinase panel: PKA; type: biochemical, human/mammalian; settings: compound at 10 μM, read-out: % of activity respect of the control
Method: as §1

MKK1, sequence (Q02750 whole entry): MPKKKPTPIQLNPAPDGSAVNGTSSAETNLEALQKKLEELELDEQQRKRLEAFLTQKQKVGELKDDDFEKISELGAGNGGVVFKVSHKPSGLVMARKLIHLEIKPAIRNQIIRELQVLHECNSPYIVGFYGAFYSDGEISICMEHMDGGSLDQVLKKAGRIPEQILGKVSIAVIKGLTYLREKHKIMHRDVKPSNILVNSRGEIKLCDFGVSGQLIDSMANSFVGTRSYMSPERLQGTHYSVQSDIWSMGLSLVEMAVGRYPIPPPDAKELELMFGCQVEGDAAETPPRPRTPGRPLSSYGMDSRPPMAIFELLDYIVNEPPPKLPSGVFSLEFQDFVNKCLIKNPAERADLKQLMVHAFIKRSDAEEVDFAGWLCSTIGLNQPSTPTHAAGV

| SMILES | remaining activity at 10 µM (MKK1) | remaining activity at 10 µM (IRR) | remaining activity at 10 µM (Aurora B) | remaining activity at 10 µM (SGK1) | EC50 (T. b. brucei; Trypanosoma brucei) | remaining activity at 10 µM (CDK2-Cyclin A) | remaining activity at 10 µM (JNK2) | remaining activity at 10 µM (BTK) | % of activity respect of the control (AMPK) | remaining activity at 10 µM (GSK3b) | remaining activity at 10 µM (PRAK) | remaining activity at 10 µM (ERK1) | remaining activity at 10 µM (CK1) | remaining activity at 10 µM (PKA) | EC50 (T. b. brucei) |
| --- | --- | --- | --- | --- | --- | --- | --- | --- | --- | --- | --- | --- | --- | --- | --- |
| CC(c1ccccc1)n1c(=O)[nH]c2ncc(-c3ccc(F)cc3)nc21 (stereo not shown) [Compound 1] | 106% | 96% | 117% | 104% | 80 nM | 89% | 104% | 113% | 97% | 63% | 103% | 153% | 75% | 87% | – |
| O=c1[nH]c2ncc(-c3ccc(F)cc3)nc2n1CC1CC1 [Compound 10] | 97% | 104% | 93% | 110% | 300 nM | 82% | 97% | 104% | 94% | 37% | 99% | 112% | 75% | 93% | – |
| O=c1[nH]c2ncc(-c3ccc(F)cc3)nc2n1C1CCCCC1 [Compound 12, 1-Cyclohexyl-6-(4-fluorophenyl)-1H-imidazo[4,5-b]pyrazin-2(3H)-one] | 62% | 83% | 85% | 111% | 30 nM | 84% | 93% | 111% | 100% | 70% | 99% | 115% | 98% | 95% | – |
| C[C@H](c1ccccc1)n1c(=O)[nH]c2ncc(-c3ccccc3)nc21 [Compound 14, (R)-6-Phenyl-1-(1-phenylethyl)-1H-imidazo[4,5-b]pyrazin-2(3H)-one] | 87% | 112% | 99% | 98% | 100 nM | 84% | 96% | 97% | 95% | 66% | 98% | 105% | 71% | 72% | – |
| O=c1[nH]c2ncc(-c3ccccc3CO)nc2n1C1CCCCC1 [Compound 28] | – | – | – | – | 50 nM | – | – | – | – | – | – | – | – | – | 46 nM |
